≈ marks a conversion by molar mass, not a printed value.

The assay has as its system T. mentagrophytes (TIMM1189). Nature of the assay: Antifungal Activity Test (Measurement of Minimum Inhibitory Concentration). Type of assay: cell-based. Conditions: Trichophyton mentagrophytes, 168 h, Sabouraud dextrose broth, 27° C., 1 week, visual determination, read-out: MIC (minimum concentration at which growth was completely inhibited). On the procedure:
Antifungal activities of compounds according to the present invention against Trichophyton sp. were determined. Described specifically, T. mentagrophytes (TIMM1189) was cultured at 27° C. for 2 weeks on Sabouraud dextrose agar slants in advance, whereby it was allowed to form sufficient conidia. The conidia were washed in a sterilized physiological saline, which contained Tween 80 at a concentration of 0.05 wt./vol. %, by rubbing the conidia with a platinum loop, whereby the conidia were suspended. The suspension was filtered through a double-layer gauze so that only the conidia were collected in a form suspended in the physiological saline. The suspension was diluted to adjust the concentration of conidia to 1×10^5 conidia/ml, whereby a test fungus solution was obtained. Meanwhile, 4 mg of one of the test compounds were taken, to which 1 ml of dimethyl sulfoxide was added to prepare a stock. The stock was subjected to doubling dilution with ethanol to prepare diluted drug solutions. To each well of a 96-well microplate for tissue culture, 175 μl of Sabouraud dextrose broth, 5 μl of the corresponding drug solution and 20 μl of the test fungus solution were added. Subsequent to thorough mixing, the fungus strain was cultured at 27° C. for 1 week.
For `CN(Cc1ccc(C(C)(C)C)cc1)Cc1ccccc1-c1ccccc1` [Compound 1, 4-tert-butyl-N-methyl-N-(2-phenylbenzyl)benzylamine], the MIC was 12.5 µg/mL (≈ 36.4 µM).
In the case of `CN(Cc1ccc(C(C)(C)C)cc1)Cc1cccc(-c2ccccc2)c1` [Compound 2, 4-tert-butyl-N-methyl-N-(3-phenylbenzyl)benzylamine] it was 25 µg/mL (≈ 72.8 µM); in that of `CN(Cc1ccc(-c2ccccc2)cc1)Cc1ccc(C(C)(C)C)cc1` [Compound 3, 4-tert-butyl-N-methyl-N-(4-phenylbenzyl)benzylamine], 12.5 µg/mL (≈ 36.4 µM).
In the case of `CN(Cc1ccc(C(C)(C)C)cc1)C(c1ccccc1)c1ccccc1` [Compound 4, 4-tert-butyl-N-diphenylmethyl-N-methylbenzylamine], the MIC stood at 100 µg/mL (≈ 291 µM).
In the case of `CN(C/C=C/C#CC(C)(C)C)Cc1ccccc1-c1ccccc1` [Compound 5, trans-N-(6,6-dimethyl-2-hepten-4-yn-1-yl)-N-methyl-2-phenylbenzylamine], the MIC worked out at 12.5 µg/mL (≈ 39.4 µM).
In the case of `CN(C/C=C\C#CC(C)(C)C)Cc1ccccc1-c1ccccc1` [Compound 6, cis-N-(6,6-dimethyl-2-hepten-4-yn-1-yl)-N-methyl-2-phenylbenzylamine] it was 100 µg/mL (≈ 315 µM).
The result for `CN(C/C=C/C#CC(C)(C)C)Cc1cccc(-c2ccccc2)c1` [Compound 7, trans-N-(6,6-dimethyl-2-hepten-4-yn-1-yl)-N-methyl-3-phenylbenzylamine] reads 12.5 µg/mL (≈ 39.4 µM); that for `CN(C/C=C\C#CC(C)(C)C)Cc1cccc(-c2ccccc2)c1` [Compound 8, cis-N-(6,6-dimethyl-2-hepten-4-yn-1-yl)-N-methyl-3-phenylbenzylamine], 12.5 µg/mL (≈ 39.4 µM).
In the case of `CN(C/C=C/C#CC(C)(C)C)Cc1ccc(-c2ccccc2)cc1` [Compound 9, trans-N-(6,6-dimethyl-2-hepten-4-yn-1-yl)-N-methyl-4-phenylbenzylamine] it was 12.5 µg/mL (≈ 39.4 µM).
Turning to `CN(CC=CC#CC(C)(C)C)C(c1ccccc1)c1ccccc1` [Compound 11, N-(6,6-dimethyl-2-hepten-4-yn-1-yl)-N-methyl(diphenylmethyl)amine], the MIC came out at 100 µg/mL (≈ 315 µM).

For the origin of these results see patent US6015925A, “Antifungal agents” (Pola Chemical Industries, Inc., priority 1998, dated 2000).
